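Protocol summary: plate cells (96-well), add compound at 5 concentrations, incubate 48 h, interpolate endpoints linearly. TGI: concentration producing complete growth inhibition.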

Here are results for four compounds from PubChem BioAssay (NCI).

Test systems include DMS 114 small cell lung; XF 498 CNS; DLD-1 colon; LXFL 529 NSCLC; NCI/ADR-RES ovarian; MDA-MB-231 breast; MALME-3M melanoma.
What all share (experiment): NCI anticancer screen, dose series, 48 h

As to `COc1ccccc1NC(=O)C(=O)C(C(=O)c1ccccc1F)C1OC(=O)c2ccccc21` (configuration not stated), the TGI in the assay with DMS 114 small cell lung is 64.3 µM; in the assay with XF 498 CNS, above 100 µM; in the assay with DLD-1 colon, above 100 µM; in the assay with LXFL 529 NSCLC, above 100 µM.

On to `COc1nc(Cl)nc(N[C@H](C)c2c3ccccc3cc3ccccc23)n1`, for which the TGI in the assay on NCI/ADR-RES ovarian was determined as 31.3 µM; with MDA-MB-231 breast, 34.4 µM.

For the compound `CCOc1ccc2nc(NC(=O)C(=O)C(C(=O)c3ccccc3F)C3OC(=O)c4ccccc43)sc2c1` (configuration not stated), the TGI in the assay with XF 498 CNS is 46.2 µM; in the assay with DLD-1 colon it was above 100 µM; in the assay with LXFL 529 NSCLC, 77.8 µM.

Consider `C[C@H]1S[C@@H](c2ccc(Cl)cc2Cl)N(NC(=O)c2ccncc2)C1=O`, for which the TGI with MALME-3M melanoma, in the assay on NCI/ADR-RES ovarian and in the assay with MDA-MB-231 breast was above 100 µM each time.
